settings: human gut metagenome, 24 h, 2 µM
Also: call rule not given here.

| Bacterial Biotransformation | SMILES |
| --- | --- |
| Compound NOT metabolized | N#Cc1ccc(C(c2ccc(C#N)cc2)n2cncn2)cc1 [LETROZOLE] |
| Compound NOT metabolized | CCCC1O[C@@H]2C[C@H]3[C@@H]4CCC5=CC(=O)C=C[C@]5(C)[C@H]4[C@@H](O)C[C@]3(C)[C@]2(C(=O)CO)O1 (stereo not given in full) [BUDESONIDE] |

assay: (§1) The drug is tested on Z-004 corresponding to metagenome with ENA study accession number: PRJEB37062 and ENA sample accession number: ERS12561804 for biotransformation under anaerobic condition. The drug concentrations were measured over 9 timepoints collected between 0 and 24 hours of incubation by liquid-chromatography-coupled mass spectrometry (LC–MS); settings: 2 µM

| Bacterial Biotransformation | SMILES |
| --- | --- |
| Compound NOT metabolized | N#Cc1ccc(C(c2ccc(C#N)cc2)n2cncn2)cc1 [LETROZOLE] |
| Compound NOT metabolized | CCCC1O[C@@H]2C[C@H]3[C@@H]4CCC5=CC(=O)C=C[C@]5(C)[C@H]4[C@@H](O)C[C@]3(C)[C@]2(C(=O)CO)O1 (stereo not given in full) [BUDESONIDE] |

assay: (§2) The drug is tested on WLS-170 corresponding to human gut metagenome with ENA study accession number: PRJEB37062 and ENA sample accession number: ERS12561762 for biotransformation under anaerobic condition. The drug concentrations were measured over 9 timepoints collected between 0 and 24 hours of incubation by liquid-chromatography-coupled mass spectrometry (LC–MS); settings: 2 µM

| Bacterial Biotransformation | SMILES |
| --- | --- |
| Compound NOT metabolized | N#Cc1ccc(C(c2ccc(C#N)cc2)n2cncn2)cc1 [LETROZOLE] |
| Compound metabolized | CCCC1O[C@@H]2C[C@H]3[C@@H]4CCC5=CC(=O)C=C[C@]5(C)[C@H]4[C@@H](O)C[C@]3(C)[C@]2(C(=O)CO)O1 (stereo not given in full) [BUDESONIDE] |

settings: human gut metagenome, 24 h, 2 µM; remark: another data set of the same source

| Bacterial Biotransformation | SMILES |
| --- | --- |
| Compound NOT metabolized | N#Cc1ccc(C(c2ccc(C#N)cc2)n2cncn2)cc1 [LETROZOLE] |
| Compound metabolized | CCCC1O[C@@H]2C[C@H]3[C@@H]4CCC5=CC(=O)C=C[C@]5(C)[C@H]4[C@@H](O)C[C@]3(C)[C@]2(C(=O)CO)O1 (stereo not given in full) [BUDESONIDE] |

settings: human gut metagenome, 24 h, 2 µM; remark: another data set of the same source

| Bacterial Biotransformation | SMILES |
| --- | --- |
| Compound NOT metabolized | N#Cc1ccc(C(c2ccc(C#N)cc2)n2cncn2)cc1 [LETROZOLE] |
| Compound metabolized | CCCC1O[C@@H]2C[C@H]3[C@@H]4CCC5=CC(=O)C=C[C@]5(C)[C@H]4[C@@H](O)C[C@]3(C)[C@]2(C(=O)CO)O1 (stereo not given in full) [BUDESONIDE] |

settings: human gut metagenome, 24 h, 2 µM; remark: another data set of the same source

| Bacterial Biotransformation | SMILES |
| --- | --- |
| Compound NOT metabolized | N#Cc1ccc(C(c2ccc(C#N)cc2)n2cncn2)cc1 [LETROZOLE] |
| Compound metabolized | CCCC1O[C@@H]2C[C@H]3[C@@H]4CCC5=CC(=O)C=C[C@]5(C)[C@H]4[C@@H](O)C[C@]3(C)[C@]2(C(=O)CO)O1 (stereo not given in full) [BUDESONIDE] |

assay: as §1, with “Z-027” for “Z-004”, “ERS12561826” for “ERS12561804”; settings: 2 µM

| Bacterial Biotransformation | SMILES |
| --- | --- |
| Compound NOT metabolized | N#Cc1ccc(C(c2ccc(C#N)cc2)n2cncn2)cc1 [LETROZOLE] |
| Compound NOT metabolized | CCCC1O[C@@H]2C[C@H]3[C@@H]4CCC5=CC(=O)C=C[C@]5(C)[C@H]4[C@@H](O)C[C@]3(C)[C@]2(C(=O)CO)O1 (stereo not given in full) [BUDESONIDE] |

settings: human gut metagenome, 24 h, 2 µM; remark: another data set of the same source

| Bacterial Biotransformation | SMILES |
| --- | --- |
| Compound NOT metabolized | N#Cc1ccc(C(c2ccc(C#N)cc2)n2cncn2)cc1 [LETROZOLE] |
| Compound metabolized | CCCC1O[C@@H]2C[C@H]3[C@@H]4CCC5=CC(=O)C=C[C@]5(C)[C@H]4[C@@H](O)C[C@]3(C)[C@]2(C(=O)CO)O1 (stereo not given in full) [BUDESONIDE] |

assay: as §2, with “WLS-090” for “WLS-170”, “ERS12561753” for “ERS12561762”; settings: 2 µM

| Bacterial Biotransformation | SMILES |
| --- | --- |
| Compound NOT metabolized | N#Cc1ccc(C(c2ccc(C#N)cc2)n2cncn2)cc1 [LETROZOLE] |
| Compound metabolized | CCCC1O[C@@H]2C[C@H]3[C@@H]4CCC5=CC(=O)C=C[C@]5(C)[C@H]4[C@@H](O)C[C@]3(C)[C@]2(C(=O)CO)O1 (stereo not given in full) [BUDESONIDE] |

assay: as §2, with “Z-028” for “WLS-170”, “mouse” for “human”, “ERS12561827” for “ERS12561762”; settings: 2 µM

| Bacterial Biotransformation | SMILES |
| --- | --- |
| Compound NOT metabolized | N#Cc1ccc(C(c2ccc(C#N)cc2)n2cncn2)cc1 [LETROZOLE] |
| Compound metabolized | CCCC1O[C@@H]2C[C@H]3[C@@H]4CCC5=CC(=O)C=C[C@]5(C)[C@H]4[C@@H](O)C[C@]3(C)[C@]2(C(=O)CO)O1 (stereo not given in full) [BUDESONIDE] |

assay: as §2, with “Z-002” for “WLS-170”, “rabbit” for “human”, “ERS12561802” for “ERS12561762”; settings: 2 µM

| Bacterial Biotransformation | SMILES |
| --- | --- |
| Compound metabolized | N#Cc1ccc(C(c2ccc(C#N)cc2)n2cncn2)cc1 [LETROZOLE] |
| Compound metabolized | CCCC1O[C@@H]2C[C@H]3[C@@H]4CCC5=CC(=O)C=C[C@]5(C)[C@H]4[C@@H](O)C[C@]3(C)[C@]2(C(=O)CO)O1 (stereo not given in full) [BUDESONIDE] |

settings: human gut metagenome, 24 h, 2 µM; remark: another data set of the same source

| Bacterial Biotransformation | SMILES |
| --- | --- |
| Compound NOT metabolized | N#Cc1ccc(C(c2ccc(C#N)cc2)n2cncn2)cc1 [LETROZOLE] |
| Compound metabolized | CCCC1O[C@@H]2C[C@H]3[C@@H]4CCC5=CC(=O)C=C[C@]5(C)[C@H]4[C@@H](O)C[C@]3(C)[C@]2(C(=O)CO)O1 (stereo not given in full) [BUDESONIDE] |

assay: as §2, with “Z-001” for “WLS-170”, “mouse” for “human”, “ERS12561801” for “ERS12561762”; settings: 2 µM

| Bacterial Biotransformation | SMILES |
| --- | --- |
| Compound NOT metabolized | N#Cc1ccc(C(c2ccc(C#N)cc2)n2cncn2)cc1 [LETROZOLE] |
| Compound NOT metabolized | CCCC1O[C@@H]2C[C@H]3[C@@H]4CCC5=CC(=O)C=C[C@]5(C)[C@H]4[C@@H](O)C[C@]3(C)[C@]2(C(=O)CO)O1 (stereo not given in full) [BUDESONIDE] |

assay: as §2, with “Z-030” for “WLS-170”, “mouse” for “human”, “ERS12561829” for “ERS12561762”; settings: 2 µM

| Bacterial Biotransformation | SMILES |
| --- | --- |
| Compound NOT metabolized | N#Cc1ccc(C(c2ccc(C#N)cc2)n2cncn2)cc1 [LETROZOLE] |
| Compound NOT metabolized | CCCC1O[C@@H]2C[C@H]3[C@@H]4CCC5=CC(=O)C=C[C@]5(C)[C@H]4[C@@H](O)C[C@]3(C)[C@]2(C(=O)CO)O1 (stereo not given in full) [BUDESONIDE] |

assay: as §1, with “Z-026” for “Z-004”, “ERS12561825” for “ERS12561804”; settings: 2 µM

| Bacterial Biotransformation | SMILES |
| --- | --- |
| Compound metabolized | N#Cc1ccc(C(c2ccc(C#N)cc2)n2cncn2)cc1 [LETROZOLE] |
| Compound NOT metabolized | CCCC1O[C@@H]2C[C@H]3[C@@H]4CCC5=CC(=O)C=C[C@]5(C)[C@H]4[C@@H](O)C[C@]3(C)[C@]2(C(=O)CO)O1 (stereo not given in full) [BUDESONIDE] |

assay: as §2, with “Z-020” for “WLS-170”, “rabbit” for “human”, “ERS12561819” for “ERS12561762”; settings: 2 µM

| Bacterial Biotransformation | SMILES |
| --- | --- |
| Compound NOT metabolized | N#Cc1ccc(C(c2ccc(C#N)cc2)n2cncn2)cc1 [LETROZOLE] |
| Compound NOT metabolized | CCCC1O[C@@H]2C[C@H]3[C@@H]4CCC5=CC(=O)C=C[C@]5(C)[C@H]4[C@@H](O)C[C@]3(C)[C@]2(C(=O)CO)O1 (stereo not given in full) [BUDESONIDE] |

settings: human gut metagenome, 24 h, 2 µM; remark: another data set of the same source

| Bacterial Biotransformation | SMILES |
| --- | --- |
| Compound NOT metabolized | N#Cc1ccc(C(c2ccc(C#N)cc2)n2cncn2)cc1 [LETROZOLE] |
| Compound metabolized | CCCC1O[C@@H]2C[C@H]3[C@@H]4CCC5=CC(=O)C=C[C@]5(C)[C@H]4[C@@H](O)C[C@]3(C)[C@]2(C(=O)CO)O1 (stereo not given in full) [BUDESONIDE] |

assay: as §1, with “Z-010” for “Z-004”, “ERS12561810” for “ERS12561804”; settings: 2 µM

| Bacterial Biotransformation | SMILES |
| --- | --- |
| Compound NOT metabolized | N#Cc1ccc(C(c2ccc(C#N)cc2)n2cncn2)cc1 [LETROZOLE] |
| Compound metabolized | CCCC1O[C@@H]2C[C@H]3[C@@H]4CCC5=CC(=O)C=C[C@]5(C)[C@H]4[C@@H](O)C[C@]3(C)[C@]2(C(=O)CO)O1 (stereo not given in full) [BUDESONIDE] |

assay: as §2, with “Z-024” for “WLS-170”, “pig” for “human”, “ERS12561823” for “ERS12561762”; settings: 2 µM

| Bacterial Biotransformation | SMILES |
| --- | --- |
| Compound metabolized | N#Cc1ccc(C(c2ccc(C#N)cc2)n2cncn2)cc1 [LETROZOLE] |
| Compound metabolized | CCCC1O[C@@H]2C[C@H]3[C@@H]4CCC5=CC(=O)C=C[C@]5(C)[C@H]4[C@@H](O)C[C@]3(C)[C@]2(C(=O)CO)O1 (stereo not given in full) [BUDESONIDE] |

assay: as §2, with “WLS-370” for “WLS-170”, “ERS12561793” for “ERS12561762”; settings: 2 µM

| Bacterial Biotransformation | SMILES |
| --- | --- |
| Compound NOT metabolized | N#Cc1ccc(C(c2ccc(C#N)cc2)n2cncn2)cc1 [LETROZOLE] |
| Compound metabolized | CCCC1O[C@@H]2C[C@H]3[C@@H]4CCC5=CC(=O)C=C[C@]5(C)[C@H]4[C@@H](O)C[C@]3(C)[C@]2(C(=O)CO)O1 (stereo not given in full) [BUDESONIDE] |

From ChEMBL document CHEMBL5724914, “Linking interpersonal differences in gut microbiota composition and drug biotransformation activity” (2024)
